Species on record: Rattus norvegicus
Experiment: DrugMatrix - Regimen: Daily Repeat
Type: toxicity, organism-based, Sprague-Dawley
Parameters: regimen Daily Repeat, gender Male, age 6-8 weeks
Conditions: in vivo, po, 17 mg/kg, route oral GAVAGE, dose level High, vehicle .5 % CMC; for ABSOLUTE BASOPHIL / ABSOLUTE EOSINOPHIL / ABSOLUTE LYMPHOCYTE / ABSOLUTE MONOCYTE / ABSOLUTE SEGMENTED NEUTROPHIL / BASOPHIL / EOSINOPHIL / ERYTHROCYTE COUNT / HEMATOCRIT / HEMOGLOBIN / LEUKOCYTE COUNT / LYMPHOCYTE / MEAN CORPUSCULAR HEMOGLOBIN / MEAN CORPUSCULAR HEMOGLOBIN CONCENTRATION / MONOCYTE / NEUTROPHIL / NUCLEATED RED BLOOD CELLS / PLATELET COUNT: tissue Blood
[1] = 72 h, tissue Plasma, time 3 day
[2] = 96 h, tissue Plasma, time 4 day

Which results are given for `O=C(Nc1c(Cl)cncc1Cl)c1ccc(OC(F)F)c(OCC2CC2)c1` [ROFLUMILAST]?
ABSOLUTE BASOPHIL (72 h, time 3 day): 0 CELLS/uL; ABSOLUTE EOSINOPHIL (72 h, time 3 day): 460.33 CELLS/uL; ABSOLUTE LYMPHOCYTE (72 h, time 3 day): 8656.33 CELLS/uL; ABSOLUTE MONOCYTE (72 h, time 3 day): 1347.33 CELLS/uL; ABSOLUTE SEGMENTED NEUTROPHIL (72 h, time 3 day): 10002.67 CELLS/uL; BASOPHIL (72 h, time 3 day): 0%; EOSINOPHIL (72 h, time 3 day): 2.33%; ERYTHROCYTE COUNT (72 h, time 3 day): 6.23 x10E6/uL; HEMATOCRIT (72 h, time 3 day): 37.23%; HEMOGLOBIN (72 h, time 3 day): 13.5 G/DL; LEUKOCYTE COUNT (72 h, time 3 day): 20.47 x10E3/uL; LYMPHOCYTE (72 h, time 3 day): 42.67%; MEAN CORPUSCULAR HEMOGLOBIN (72 h, time 3 day): 21.7 pg; MEAN CORPUSCULAR HEMOGLOBIN CONCENTRATION (72 h, time 3 day): 36.27 G/DL; MONOCYTE (72 h, time 3 day): 6.33%; NEUTROPHIL (72 h, time 3 day): 48.67%; NUCLEATED RED BLOOD CELLS (72 h, time 3 day): 0 /100WBC; PLATELET COUNT (72 h, time 3 day): 1131 x10E3/uL; ALANINE AMINOTRANSFERASE [1]: 18 u/L; ALBUMIN [1]: 3.07 G/DL; ALKALINE PHOSPHATASE [1]: 189.33 u/L; ASPARTATE AMINOTRANSFERASE [1]: 63 u/L; BLOOD UREA NITROGEN [1]: 17.33 mg/dL; CARBON DIOXIDE [1]: 28.33 mmol/L; CHLORIDE [1]: 97.33 MEQ/L; CHOLESTEROL [1]: 61 mg/dL; CREATININE [1]: 0.15 mg/dL; GLUCOSE [1]: 131.67 mg/dL; LACTATE DEHYDROGENASE [1]: 149.67 u/L; LIPASE [1]: 8.33 u/L; PHOSPHORUS [1]: 10.43 mg/dL; POTASSIUM [1]: 4.72 MEQ/L; SODIUM [1]: 144.73 MEQ/L; TOTAL BILIRUBIN [1]: 0.1 mg/dL; TOTAL PROTEIN [1]: 6.4 G/DL; URIC ACID [1]: 1.37 mg/dL; ABSOLUTE BASOPHIL (96 h, time 4 day): 0 CELLS/uL; ABSOLUTE EOSINOPHIL (96 h, time 4 day): 0 CELLS/uL; ABSOLUTE LYMPHOCYTE (96 h, time 4 day): 3924 CELLS/uL; ABSOLUTE MONOCYTE (96 h, time 4 day): 981 CELLS/uL; ABSOLUTE SEGMENTED NEUTROPHIL (96 h, time 4 day): 16695 CELLS/uL; BASOPHIL (96 h, time 4 day): 0%; EOSINOPHIL (96 h, time 4 day): 0%; ERYTHROCYTE COUNT (96 h, time 4 day): 6.21 x10E6/uL; HEMATOCRIT (96 h, time 4 day): 36.1%; HEMOGLOBIN (96 h, time 4 day): 13.4 G/DL; LEUKOCYTE COUNT (96 h, time 4 day): 21.6 x10E3/uL; LYMPHOCYTE (96 h, time 4 day): 18%; MEAN CORPUSCULAR HEMOGLOBIN (96 h, time 4 day): 21.6 pg; MEAN CORPUSCULAR HEMOGLOBIN CONCENTRATION (96 h, time 4 day): 37.15 G/DL; MONOCYTE (96 h, time 4 day): 4.5%; NEUTROPHIL (96 h, time 4 day): 77.5%; NUCLEATED RED BLOOD CELLS (96 h, time 4 day): 0 /100WBC; PLATELET COUNT (96 h, time 4 day): 1458.5 x10E3/uL; ALANINE AMINOTRANSFERASE [2]: 19 u/L; ALBUMIN [2]: 2.45 G/DL; ALKALINE PHOSPHATASE [2]: 153.5 u/L; ASPARTATE AMINOTRANSFERASE [2]: 51.5 u/L; BLOOD UREA NITROGEN [2]: 24 mg/dL; CARBON DIOXIDE [2]: 32 mmol/L; CHLORIDE [2]: 96.5 MEQ/L; CHOLESTEROL [2]: 50.5 mg/dL; CREATININE [2]: 0.16 mg/dL; GLUCOSE [2]: 112.5 mg/dL; LACTATE DEHYDROGENASE [2]: 173 u/L; LIPASE [2]: 7.5 u/L; PHOSPHORUS [2]: 10.1 mg/dL; POTASSIUM [2]: 5.21 MEQ/L; SODIUM [2]: 143.95 MEQ/L; TOTAL BILIRUBIN [2]: 0.15 mg/dL; TOTAL PROTEIN [2]: 6 G/DL
